This passage reports IC50 results from patent publication US20250313535A1, “ALPHA 4 BETA 7 INTEGRIN MODULATORS AND USES THEREOF” (DICE MOLECULES SV, INC., priority 2022, published 2025).

Read-outs that look alike come from different tables or passages of the source.

A word on the IC50: it is the concentration that inhibits the measured activity by half.

The target of one test is α4β7 integrin (Homo sapiens (Human), UniProt P13612+P26010). Put plainly: Integrin Adhesion Assay: Protocol 4 (MAdCAM-coated plate, RPMI-8866 cells with stable LOF mutation of the ITGB1 gene). The format is cell-based. The method, boiled down: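 RPMI-8866 cells with CRISPR/Cas9 knockout of ITGB1 (2×10^6/mL) were added to MAdCAM-coated wells with compound (1% DMSO) in HEPES/NaCl buffer with 1 mM MnCl2, 0.1 mM CaCl2 and 1% BSA, then incubated 1 h at 37 °C. After four washes, adherent cells were quantified by CellTiter-Glo luminescence. Percent inhibition versus DMSO and control compound was fitted to 4-parameter curves.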

For the next test, the target named is α4β1 integrin (Homo sapiens (Human), UniProt P05556+P13612). Put plainly: Integrin Adhesion Assay: Protocol 5 (VCAM-coated plate, RPMI-8866 cells with stable LOF mutation of the ITGB7 gene). Format: cell-based. In outline:
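RPMI-8866 B cells with CRISPR/Cas9 ITGB7 knockout (clonal, verified by flow cytometry) adhered to VCAM-coated wells for 1 h at 37° C in HEPES/NaCl buffer with 1 mM MnCl2, 0.1 mM CaCl2, 1% BSA, 1% DMSO. Bound cells quantified by CellTiter-Glo luminescence after washing; % inhibition versus DMSO and control, 4-parameter fit.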

[1] abbreviates: Protocol 4, RPMI-8866 cells with LOF mutation of ITGB1, MAdCAM, read-out: Mean IC50 α4β7 KO.
[2] abbreviates: Protocol 5, RPMI-8866 cells with LOF mutation of ITGB7, VCAM, read-out: Mean IC50 α4β1 KO.
The mark [3] stands for this setting: RPMI-8866 cells with stable LOF mutation of the ITGB1 gene, read-out: Mean IC50 α4β7 KO^a.
[4] abbreviates: RPMI-8866 cells with stable LOF mutation of the ITGB7 gene, read-out: Mean IC50 α4β1 KO^b.

Chain of α4β1 integrin (P13612 34-1032): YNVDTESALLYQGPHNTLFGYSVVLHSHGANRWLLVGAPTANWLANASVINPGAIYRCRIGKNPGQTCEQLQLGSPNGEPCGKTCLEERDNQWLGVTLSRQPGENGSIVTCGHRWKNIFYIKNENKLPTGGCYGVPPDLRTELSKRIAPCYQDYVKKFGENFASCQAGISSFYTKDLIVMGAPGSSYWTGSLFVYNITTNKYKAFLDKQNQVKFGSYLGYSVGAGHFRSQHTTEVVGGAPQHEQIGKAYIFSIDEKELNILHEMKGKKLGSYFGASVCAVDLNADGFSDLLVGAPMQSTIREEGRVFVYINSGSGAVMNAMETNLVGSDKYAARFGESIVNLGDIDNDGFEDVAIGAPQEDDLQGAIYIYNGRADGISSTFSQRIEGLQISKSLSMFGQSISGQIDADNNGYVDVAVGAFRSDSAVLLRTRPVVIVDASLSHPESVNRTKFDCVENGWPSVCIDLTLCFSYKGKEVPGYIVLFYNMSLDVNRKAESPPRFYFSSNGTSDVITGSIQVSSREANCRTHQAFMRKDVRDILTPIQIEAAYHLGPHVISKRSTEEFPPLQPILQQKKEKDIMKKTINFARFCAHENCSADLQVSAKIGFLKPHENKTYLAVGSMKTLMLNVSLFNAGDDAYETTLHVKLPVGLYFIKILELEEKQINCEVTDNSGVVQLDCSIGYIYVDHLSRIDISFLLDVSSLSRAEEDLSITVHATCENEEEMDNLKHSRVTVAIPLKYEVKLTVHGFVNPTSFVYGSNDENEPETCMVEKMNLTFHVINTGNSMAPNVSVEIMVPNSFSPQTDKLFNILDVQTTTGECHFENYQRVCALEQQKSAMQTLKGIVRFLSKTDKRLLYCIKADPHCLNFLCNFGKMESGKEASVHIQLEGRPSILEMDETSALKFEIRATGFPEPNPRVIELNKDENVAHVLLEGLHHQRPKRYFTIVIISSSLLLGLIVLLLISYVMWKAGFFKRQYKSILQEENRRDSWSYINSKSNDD
Chain of α4β1 integrin (P05556 21-798): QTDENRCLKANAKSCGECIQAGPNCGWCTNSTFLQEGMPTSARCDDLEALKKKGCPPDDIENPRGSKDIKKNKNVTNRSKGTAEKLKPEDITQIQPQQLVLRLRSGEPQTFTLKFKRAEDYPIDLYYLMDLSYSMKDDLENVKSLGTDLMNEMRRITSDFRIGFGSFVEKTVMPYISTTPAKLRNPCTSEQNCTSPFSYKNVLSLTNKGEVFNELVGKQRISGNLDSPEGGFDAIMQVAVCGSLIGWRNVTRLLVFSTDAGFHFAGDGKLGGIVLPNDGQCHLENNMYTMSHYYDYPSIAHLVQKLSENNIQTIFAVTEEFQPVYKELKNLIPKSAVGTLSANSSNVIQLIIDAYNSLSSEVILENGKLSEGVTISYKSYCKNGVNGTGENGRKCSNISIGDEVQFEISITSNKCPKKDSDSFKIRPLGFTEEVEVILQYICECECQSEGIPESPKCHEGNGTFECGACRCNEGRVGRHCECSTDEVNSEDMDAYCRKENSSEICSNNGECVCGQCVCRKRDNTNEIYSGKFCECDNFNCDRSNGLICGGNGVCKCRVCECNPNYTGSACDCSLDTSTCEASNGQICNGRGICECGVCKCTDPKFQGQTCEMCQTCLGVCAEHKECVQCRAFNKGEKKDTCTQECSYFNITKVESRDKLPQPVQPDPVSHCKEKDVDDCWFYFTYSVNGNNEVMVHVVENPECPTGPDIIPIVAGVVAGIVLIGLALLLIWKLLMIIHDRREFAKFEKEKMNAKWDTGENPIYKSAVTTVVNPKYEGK
Chain of α4β7 integrin (P13612 34-1032): as the sequence (P13612 34-1032) above
Chain of α4β7 integrin (P26010 20-798): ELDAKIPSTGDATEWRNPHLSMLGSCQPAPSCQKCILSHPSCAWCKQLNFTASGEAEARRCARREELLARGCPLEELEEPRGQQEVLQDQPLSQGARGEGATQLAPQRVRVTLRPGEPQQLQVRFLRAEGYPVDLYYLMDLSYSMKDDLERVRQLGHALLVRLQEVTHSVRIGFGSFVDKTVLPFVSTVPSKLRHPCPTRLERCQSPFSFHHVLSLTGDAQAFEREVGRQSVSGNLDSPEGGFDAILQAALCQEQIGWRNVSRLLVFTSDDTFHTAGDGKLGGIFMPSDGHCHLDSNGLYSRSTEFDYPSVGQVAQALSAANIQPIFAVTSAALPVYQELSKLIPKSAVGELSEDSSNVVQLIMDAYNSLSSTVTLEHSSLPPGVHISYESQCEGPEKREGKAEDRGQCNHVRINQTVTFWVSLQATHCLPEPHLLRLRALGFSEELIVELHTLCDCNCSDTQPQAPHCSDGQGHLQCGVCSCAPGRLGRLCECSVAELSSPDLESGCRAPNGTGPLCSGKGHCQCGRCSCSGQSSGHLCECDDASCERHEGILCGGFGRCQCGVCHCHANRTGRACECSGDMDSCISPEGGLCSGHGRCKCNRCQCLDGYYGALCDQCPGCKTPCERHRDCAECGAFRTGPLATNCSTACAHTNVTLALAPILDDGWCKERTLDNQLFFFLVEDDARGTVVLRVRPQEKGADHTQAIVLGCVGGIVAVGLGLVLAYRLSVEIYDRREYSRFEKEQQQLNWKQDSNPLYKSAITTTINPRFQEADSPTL

Take `O=C(O)[C@H](Cc1cccc2c(-c3ncc(CN4CCC(F)(F)CC4)cc3C3CC3)cccc12)NC(=O)C1(C(F)(F)F)CCN(CC(F)(F)F)CC1` [Compound 947]: the 50% inhibitory concentration (IC50) was less than 10 nM on α4β7 integrin (setting [1]) and 100 to 1000 nM on α4β1 integrin (setting [2]).
As to `COc1cnc(CN(C)C)cc1-c1cccc2c(C[C@H](NC(=O)c3c(C)cccc3F)C(=O)O)cccc12` [Compound 601], the 50% inhibitory concentration (IC50) at α4β7 integrin (setting [3]) was less than 10 nM; on α4β1 integrin (setting [4]), greater than 1000 nM.
As for `O=C(O)[C@H](Cc1cccc2c(-c3cccc4cc(CN5CCCCC5)ncc34)cccc12)NC(=O)C1(C(F)(F)F)CCN(CC(F)(F)F)CC1` [Compound 991], the 50% inhibitory concentration (IC50) on α4β7 integrin (setting [1]) was 100 to 1000 nM; at α4β1 integrin (setting [2]), greater than 1000 nM.
In the same order, the values of `COc1ccc(CN2CCCC(C)(C)CC2)c(OC)c1-c1cccc2c(C[C@H](NC(=O)C3(C(F)(F)F)CCN(CC(F)(F)F)CC3)C(=O)O)cccc12` [Compound 812] are 10 to 100 nM and greater than 1000 nM.
In the same order, the values of `O=C(O)[C@H](Cc1cccc2c(-c3cc(CN4CCCCC4)cc4cccnc34)cccc12)NC(=O)C1(C(F)(F)F)CCN(CC(F)(F)F)CC1` [Compound 732] are 10 to 100 nM and greater than 1000 nM.
For `COc1ccc2cccnc2c1-c1cccc2c(C[C@H](NC(=O)C3(C(F)(F)F)CCN(CC(F)(F)F)CC3)C(=O)O)cccc12` [Compound 472], the half-inhibitory concentration (IC50) at α4β7 integrin (setting [3]) was less than 10 nM; on α4β1 integrin (setting [4]) it was greater than 1000 nM.
For the molecule `N#CC1(C(=O)N[C@@H](Cc2cccc3c(-c4ncc(CN5CCCCC5)c5ccccc45)cccc23)C(=O)O)CCN(CC(F)(F)F)CC1` [Compound 677], the results for the IC50 at α4β7 integrin (setting [3]) and at α4β1 integrin (setting [4]) were 10 to 100 nM and greater than 1000 nM, respectively.
Turning to `CC1CCN(Cc2ccc3c(c2)c(C(F)(F)F)c(-c2cccc4c(C[C@H](NC(=O)C5(C(F)(F)F)CCN(CC(F)F)CC5)C(=O)O)cccc24)c(=O)n3C)CCC1(F)F` (stereo partly drawn) [Compound 840], the half-inhibitory concentration (IC50) at α4β7 integrin (setting [1]) was less than 10 nM; on α4β1 integrin (setting [2]), 10 to 100 nM.
The like results for `COCc1ccc2c(c1)c(C(F)(F)F)c(-c1cccc3c(CC(NC(=O)c4c(F)cccc4F)C(=O)O)cccc13)c(=O)n2C` (stereo not drawn) [Compound 1041] were, in that order, 100 to 1000 nM and greater than 1000 nM.
Consider `Cn1c(=O)c(-c2cccc3c(C[C@H](NC(=O)C4(C(F)(F)F)CCN(CC(C)(F)F)CC4)C(=O)O)cccc23)c(C(F)(F)F)c2ccccc21` [Compound 534], for which the IC50 was 10 to 100 nM on α4β7 integrin (setting [3]) and 100 to 1000 nM at α4β1 integrin (setting [4]).
As to `COc1ccc(CCN2CCC(F)(F)CC2)c(OC)c1-c1cccc2c(C[C@H](NC(=O)C3(C(F)(F)F)CCN(CC(F)(F)F)CC3)C(=O)O)cccc12` [Compound 958], the IC50 at α4β7 integrin (setting [1]) is less than 10 nM; at α4β1 integrin (setting [2]) it was 100 to 1000 nM.
The like results for `COc1ccc(CN2CCC[C@H](F)C2)c(OC)c1-c1cccc2c(C[C@H](NC(=O)C3(C(F)(F)F)CCN(CC(F)(F)F)CC3)C(=O)O)cccc12` [Compound 842] were, in that order, less than 10 nM and 100 to 1000 nM.
In the same order, the values of `COc1ccc2c(c1-c1cccc3c(C[C@H](NC(=O)c4c(C)cccc4F)C(=O)O)cccc13)CCN(CC(F)(F)F)C2` [Compound 997] are 10 to 100 nM and greater than 1000 nM.
On to `O=C(O)[C@H](Cc1cccc2c(-c3ncc(CN4CCCCC4)c4ccccc34)cccc12)NC(=O)C1(C(F)(F)F)CCN(CC2(C(F)(F)F)CC2)CC1` [Compound 683], for which the IC50 on α4β7 integrin (setting [3]) is less than 10 nM; on α4β1 integrin (setting [4]), greater than 1000 nM.
In the same order, the values of `COc1cccc(CN2CCCCC2)c1-c1cccc2c(C[C@H](NC(=O)c3c(F)cccc3C(F)(F)F)C(=O)O)cccc12` [Compound 542] are less than 10 nM and 100 to 1000 nM.
Turning to `COc1cc(C(F)(F)F)c(CN2CCCCC2)cc1-c1cccc2c(C[C@H](NC(=O)c3c(C)cccc3F)C(=O)O)cccc12` [Compound 1025], the IC50 on α4β7 integrin (setting [1]) is 10 to 100 nM; at α4β1 integrin (setting [2]), greater than 1000 nM.
For the molecule `COc1ccc(CN(C)C)c(C)c1-c1cccc2c(C[C@H](NC(=O)c3c(C)cccc3F)C(=O)O)cccc12` [Compound 558], the IC50 on α4β7 integrin (setting [3]) was less than 10 nM; at α4β1 integrin (setting [4]) it was 100 to 1000 nM.
Consider `CCOCc1cc(OC)c(-c2cccc3c(C[C@H](NC(=O)c4c(C)cccc4F)C(=O)O)cccc23)cc1CN1CCCCC1` [Compound 1008], for which the IC50 was less than 10 nM on α4β7 integrin (setting [1]) and 100 to 1000 nM at α4β1 integrin (setting [2]).
The like results for `COc1cc(CN2CCCCC2)cnc1-c1cccc2c(C[C@H](NC(=O)C3(C(F)(F)F)CCN(CC(F)(F)F)CC3)C(=O)O)cccc12` [Compound 800] were, in that order, less than 10 nM and greater than 1000 nM.
On to `Cc1cc(C(F)(F)F)c(-c2cccc3c(C[C@H](NC(=O)C4(C(F)(F)F)CCN(CC(F)(F)F)CC4)C(=O)O)cccc23)c(=O)n1C` [Compound 453], for which the IC50 on α4β7 integrin (setting [3]) was less than 10 nM; at α4β1 integrin (setting [4]), 100 to 1000 nM.
As for `O=C(O)[C@H](Cc1cccc2c(-c3ncc(CN4CCC(C(F)(F)F)CC4)c4ccccc34)cccc12)NC(=O)C1(C(F)(F)F)CCN(CC(F)F)CC1` [Compound 879], the IC50 at α4β7 integrin (setting [1]) is 10 to 100 nM; at α4β1 integrin (setting [2]) it was greater than 1000 nM.
`CN(C)CCc1cc(-c2cccc3c(C[C@H](NC(=O)C4(C(F)(F)F)CCN(CC(F)(F)F)CC4)C(=O)O)cccc23)c2cnccc2c1` [Compound 469]: the results for the IC50 on α4β7 integrin (setting [3]) and at α4β1 integrin (setting [4]) were 10 to 100 nM and 100 to 1000 nM, respectively.
The like results for `CC1OCCC1N1CCC(C(=O)N[C@@H](Cc2cccc3c(-c4c(C(F)(F)F)c5ccccc5n(C)c4=O)cccc23)C(=O)O)(C(F)(F)F)CC1` (stereo partly drawn) [Compound 509] were, in that order, less than 10 nM and 100 to 1000 nM.
Turning to `COc1cccc(CN2CCC(C(F)(F)F)CC2)c1-c1cccc2c(C[C@H](NC(=O)c3c(C)cccc3F)C(=O)O)cccc12` [Compound 1026], the IC50 on α4β7 integrin (setting [1]) was 10 to 100 nM; on α4β1 integrin (setting [2]), greater than 1000 nM.
In the same order, the values of `CC(C)(C)C1CCN(CCc2cnc(-c3cccc4c(C[C@H](NC(=O)C5(C(F)(F)F)CCN(CC(F)(F)F)CC5)C(=O)O)cccc34)c3ccccc23)CC1` [Compound 981] are less than 10 nM and greater than 1000 nM.
For `COc1ccc(CN2CC(OC(C)(C)C)C2)c(OC)c1-c1cccc2c(C[C@H](NC(=O)C3(C(F)(F)F)CCN(CC(F)(F)F)CC3)C(=O)O)cccc12` [Compound 657], the IC50 at α4β7 integrin (setting [3]) is less than 10 nM; at α4β1 integrin (setting [4]) it was greater than 1000 nM.
For `COc1ccc(CN2CCC(F)(F)CC2)cc1-c1cccc2c(C[C@H](NC(=O)C3(C(F)(F)F)CCN(CC(F)F)CC3)C(=O)O)cccc12` [Compound 927], the IC50 is less than 10 nM at α4β7 integrin (setting [1]) and 100 to 1000 nM at α4β1 integrin (setting [2]).
Take `CN(C)Cc1cccc2c(-c3cccc4c(C[C@H](NC(=O)C5(C(F)(F)F)CCN(CC(F)(F)F)CC5)C(=O)O)cccc34)nccc12` [Compound 421]: the IC50 at α4β7 integrin (setting [3]) is less than 10 nM; at α4β1 integrin (setting [4]), greater than 1000 nM.
For the molecule `COc1cncc(OC)c1-c1cccc2c(C[C@H](NC(=O)C3(C(F)(F)F)CCN(CC(F)(F)F)CC3)C(=O)O)cccc12` [Compound 734], the 50% inhibitory concentration (IC50) on α4β7 integrin (setting [1]) is less than 10 nM; at α4β1 integrin (setting [2]), 100 to 1000 nM.
In the same order, the values of `CC(C)Oc1cc(CN2CCCCC2)cnc1-c1cccc2c(C[C@H](NC(=O)C3(C(F)(F)F)CCN(CC(F)(F)F)CC3)C(=O)O)cccc12` [Compound 894] are less than 10 nM and 100 to 1000 nM.
Consider `COc1ccc(CN(C)CCF)c(OC)c1-c1cccc2c(C[C@H](NC(=O)c3c(C)cccc3F)C(=O)O)cccc12` [Compound 636], for which the IC50 on α4β7 integrin (setting [3]) was less than 10 nM; at α4β1 integrin (setting [4]), 100 to 1000 nM.
`COc1cccc(CN2CCC(C)(C)CC2)c1-c1cccc2c(C[C@H](NC(=O)C3(C(F)(F)F)CCN(CC(F)(F)F)CC3)C(=O)O)cccc12` [Compound 829]: the half-inhibitory concentration (IC50) on α4β7 integrin (setting [1]) was 10 to 100 nM; on α4β1 integrin (setting [2]), greater than 1000 nM.
Consider `COc1ccc(CN2CCC(F)(F)CC2)c(OC)c1-c1cccc2c(C[C@H](NC(=O)c3c(C)cc(NCC(F)(F)F)cc3F)C(=O)O)cccc12` [Compound 608], for which the half-inhibitory concentration (IC50) on α4β7 integrin (setting [3]) was 10 to 100 nM; on α4β1 integrin (setting [4]), greater than 1000 nM.
For `O=C(O)[C@H](Cc1cccc2c(-c3ncc(CN4CCC(F)CC4)c4ccccc34)cccc12)NC(=O)C1(C(F)(F)F)CCN(CC(F)F)CC1` [Compound 905], the concentration for half-maximal inhibition (IC50) on α4β7 integrin (setting [1]) is less than 10 nM; at α4β1 integrin (setting [2]), greater than 1000 nM.
The like results for `COc1cc(CN2CCC[C@@H](F)C2)cc(C(F)(F)F)c1-c1cccc2c(C[C@H](NC(=O)C3(C(F)(F)F)CCN(CC(F)(F)F)CC3)C(=O)O)cccc12` [Compound 849] were, in that order, 10 to 100 nM and greater than 1000 nM.
In the same order, the values of `COc1ccc(CN2CC(F)C2)c(OC)c1-c1cccc2c(C[C@H](NC(=O)C3(C(F)(F)F)CCN(CC(F)(F)F)CC3)C(=O)O)cccc12` [Compound 781] are 10 to 100 nM and greater than 1000 nM.
Turning to `COc1ccc(CN2CCC(C)(C)CC2)c(C(F)(F)F)c1-c1cccc2c(C[C@H](NC(=O)c3c(C)cccc3F)C(=O)O)cccc12` [Compound 658], the IC50 at α4β7 integrin (setting [3]) is less than 10 nM; at α4β1 integrin (setting [4]) it was 100 to 1000 nM.
On to `Cc1cccc(F)c1C(=O)N[C@@H](Cc1cccc2c(-c3c(C(F)(F)F)c4cc(CCN5CCC(F)(F)CC5)ccc4n(C)c3=O)cccc12)C(=O)O` [Compound 714], for which the figures for the half-inhibitory concentration (IC50) on α4β7 integrin (setting [1]) and at α4β1 integrin (setting [2]) were 10 to 100 nM and greater than 1000 nM, respectively.
The like results for `COc1ccc2c(CN3CCCCC3)ccnc2c1-c1cccc2c(C[C@H](NC(=O)C3(C(F)(F)F)CCN(CC(F)(F)F)CC3)C(=O)O)cccc12` [Compound 722] were, in that order, less than 10 nM and 10 to 100 nM.
